Our source for the EC50 and IC50 values is ChEMBL document CHEMBL1201862, “PubChem BioAssay data set” (2004).

In one experiment the target is T1, Streptokinase A (Streptococcus pyogenes serotype M1, UniProt P10520).
T1 sequence (P10520 whole entry): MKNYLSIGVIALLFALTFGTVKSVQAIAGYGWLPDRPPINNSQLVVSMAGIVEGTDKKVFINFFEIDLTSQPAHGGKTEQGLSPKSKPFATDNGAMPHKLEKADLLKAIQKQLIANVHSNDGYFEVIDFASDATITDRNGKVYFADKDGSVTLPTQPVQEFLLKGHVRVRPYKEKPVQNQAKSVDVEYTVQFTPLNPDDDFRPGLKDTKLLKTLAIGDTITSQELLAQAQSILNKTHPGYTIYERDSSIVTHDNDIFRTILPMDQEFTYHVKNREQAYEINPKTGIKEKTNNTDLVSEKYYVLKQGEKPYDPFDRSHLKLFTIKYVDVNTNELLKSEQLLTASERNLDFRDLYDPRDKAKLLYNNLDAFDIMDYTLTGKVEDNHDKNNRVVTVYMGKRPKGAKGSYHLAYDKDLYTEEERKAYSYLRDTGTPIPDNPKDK
Briefly: S. pyogenes streptokinase expression inhibitors, potency, dose response, plasminogen activation absorbance, OD405 (AID 1914).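 Also: secreted streptokinase activity via plasminogen activation per viability signal from cell pellet.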 The experiment is classed as functional, Streptococcus pyogenes M1 GAS.

A further experiment deals with Streptococcus. In words: Group A Streptococcus viability loss, dose response, counter-screen for streptokinase expression inhibitor project, luminescence, BacTiterGlo (AID 1915).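 Also: potency for reduction of bacterial viability or growth.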 The experiment is classed as functional, organism-based. (The purpose of a counterscreen is to sort out artefacts and off-target activity.)
The subject of experiment [1] is Streptococcus sp. 'group A'. In words: growth inhibition of control SK(-) GAS strain, dose response, counter-screen for streptokinase expression inhibitor project, luminescence, kanamycin, BacTiterGlo, confirmation (AID 1900). The experiment is classed as functional, organism-based.
Experiment [2] addresses T2, Sentrin-specific protease 8 (Homo sapiens, UniProt Q96LD8).
T2 sequence (Q96LD8 whole entry): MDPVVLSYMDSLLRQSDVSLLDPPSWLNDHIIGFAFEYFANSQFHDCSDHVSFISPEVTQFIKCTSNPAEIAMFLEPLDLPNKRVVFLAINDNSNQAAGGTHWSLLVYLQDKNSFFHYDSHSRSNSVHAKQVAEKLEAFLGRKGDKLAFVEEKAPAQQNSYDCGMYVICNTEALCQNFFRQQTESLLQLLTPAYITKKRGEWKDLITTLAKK
Format: functional.

Experiment [3] addresses T3, Sentrin-specific protease 6 (Homo sapiens, UniProt Q9GZR1).
T3 sequence (Q9GZR1 whole entry): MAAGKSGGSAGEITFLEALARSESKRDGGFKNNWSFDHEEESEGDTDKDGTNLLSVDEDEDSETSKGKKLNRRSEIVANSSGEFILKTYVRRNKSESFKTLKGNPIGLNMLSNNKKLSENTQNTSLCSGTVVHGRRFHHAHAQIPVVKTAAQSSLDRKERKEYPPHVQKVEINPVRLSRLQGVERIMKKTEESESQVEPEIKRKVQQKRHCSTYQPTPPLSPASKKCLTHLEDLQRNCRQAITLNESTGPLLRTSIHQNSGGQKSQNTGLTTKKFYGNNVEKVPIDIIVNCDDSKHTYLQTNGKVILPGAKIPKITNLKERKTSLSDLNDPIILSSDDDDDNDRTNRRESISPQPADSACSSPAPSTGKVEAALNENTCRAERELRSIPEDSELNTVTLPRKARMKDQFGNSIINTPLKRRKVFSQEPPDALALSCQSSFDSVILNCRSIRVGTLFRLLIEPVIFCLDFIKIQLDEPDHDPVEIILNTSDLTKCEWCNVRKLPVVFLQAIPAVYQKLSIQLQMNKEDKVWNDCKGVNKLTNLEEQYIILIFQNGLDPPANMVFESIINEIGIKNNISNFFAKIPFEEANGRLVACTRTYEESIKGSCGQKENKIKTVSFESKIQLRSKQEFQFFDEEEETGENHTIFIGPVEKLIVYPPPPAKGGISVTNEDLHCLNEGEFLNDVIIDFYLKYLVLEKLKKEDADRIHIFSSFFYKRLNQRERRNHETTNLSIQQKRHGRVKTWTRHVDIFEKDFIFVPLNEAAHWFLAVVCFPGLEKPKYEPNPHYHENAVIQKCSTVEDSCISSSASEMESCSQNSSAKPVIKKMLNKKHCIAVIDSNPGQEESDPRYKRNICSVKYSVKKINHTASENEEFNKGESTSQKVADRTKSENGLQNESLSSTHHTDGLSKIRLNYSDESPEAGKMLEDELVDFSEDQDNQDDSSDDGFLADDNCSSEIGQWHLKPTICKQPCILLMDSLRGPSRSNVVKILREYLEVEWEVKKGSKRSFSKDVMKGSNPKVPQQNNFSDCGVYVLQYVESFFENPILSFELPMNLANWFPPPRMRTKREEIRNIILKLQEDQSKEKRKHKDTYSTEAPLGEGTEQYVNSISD
Format: functional.

For orientation: EC50 means the concentration at which the effect is half-maximal. The term IC50 denotes the concentration that inhibits the measured activity by half.

Each structure is given as a SMILES string. Calls of active or inactive are those of the source. Rule as the data show it, for most assays here: actives have a measured EC50 and inactives only a lower limit.

With `O=C(Nc1ccccc1)c1nnsc1[S+]([O-])c1ccc(Cl)cc1` (stereo not given), the 50% effective concentration (EC50) on Streptokinase A was 1.06 µM (active); with Streptococcus it was 3.79 µM (active); in experiment [1], 2.11 µM (active).
With `CC1OC(Nc2cccc3ccccc23)C(O)C(O)C1O` (stereo not given), the IC50 in experiment [2] is 6.06 µM (active); in experiment [3], 3.63 µM (active).
For `O=C1C=C(Nc2ccccc2)c2ccccc2C1=O`, the EC50 on Streptokinase A was > 150 µM (not active); in the experiment with Streptococcus, 8.86 µM (active); in experiment [1], 1.77 µM (active). For the same compound, the half-inhibitory concentration (IC50) in experiment [2] is 9.45 µM (active); in experiment [3] it was 5.8 µM (active).
